Results on two compounds are retold here after patent US20250360101A1, “OSTEOCLAST DIFFERENTIATION INHIBITOR CONTAINING UROLITHIN” (DAICEL CORPORATION, priority 2020, published 2025).

The subject of assay [1] is macrophages prepared by differentiation from the isolated mouse bone marrow-derived hematopoietic stem cells. Put plainly: Osteoclast differentiation inhibition test (M-CSF/RANKL induction, TRAP staining) from macrophages. The settings on record: 10 μM; 3 days culture; ratio of TRAP-stained area to sample-free group (Comparative Example 3 = 100%). In kind it is cell-based. As to the method:
(§1) In the present Examples, statistical analysis was carried out using commercially available software (StatMate3, ATMS). Except for Example 3 and Comparative Example 3, Tukey's test was used for comparison in terms of the action and effect. In all tests, a significant difference was assumed at a P value of not more than 0.1%. In Example 3 and Comparative Example 3, Dunnett's test was used for comparison in terms of the action and effect. A significant difference was assumed at a P-value of not more than 1%.
Mouse femurs and tibias were removed, and a portion of about 2 mm was removed from each bone end by cutting. The long bones were placed in a 0.2-mL microtube, and centrifuged at 2000×g, followed by collecting bone marrow fluid. […]
The macrophages prepared by differentiation from the isolated mouse bone marrow-derived hematopoietic stem cells were plated on a 96-well plate at 4.0×10^4 cells/well. […] The total number of multinucleated osteoclasts having three or more nuclei present on each well was counted. The stained image was scanned using a scanner (EPSON, GT-X970, 800 pixels/inch), and the stained area was measured using image analysis software Image J. […]
The ratio of the stained area in each sample-addition group (Example 3) to the stained area in the sample-free group (Comparative Example 3) was calculated to determine the number of osteoclasts (relative value). […]

For assay [2], the system named is mouse bone marrow-derived hematopoietic stem cells. Put plainly: Osteoclast differentiation inhibition test (M-CSF/RANKL induction, TRAP staining) from hematopoietic stem cells. The settings on record: for number of osteoclasts (relative value): 8 days culture, ratio of TRAP-stained area to sample-free group (Comparative Example = 100%); for Osteoclast differentiation (significance vs Comparative Example): Tukey's test, P not more than 0.1%. In kind it is cell-based. The protocol: as §1
Mouse femurs and tibias were removed, and a portion of about 2 mm was removed from each bone end by cutting. The long bones were placed in a 0.2-mL microtube, and centrifuged at 2000×g, followed by collecting bone marrow fluid. After suspending the bone marrow fluid in 4 ml of α-MEM medium (#. 11900-016, Gibco) supplemented with 10% FBS (JBS-011115), the resulting suspension was plated on a 6-cm dish. After incubating the plate at 37° C. under 5% CO2 for 24 hours, the medium was collected. The floating cells in the medium were isolated as hematopoietic stem cells.
The isolated mouse bone marrow-derived hematopoietic stem cells were plated on a 96-well plate at 4.0×10^4 cells/well. At the same time as the plating, 30 ng/ML M-CSF (macrophage-colony stimulating factor, R&D Systems) and 50 ng/mL RANKL (receptor activator of nuclear factor κ-B ligand, PeproTech Inc.) as inducers of differentiation into osteoclasts were added to all wells. Together with the differentiation inducers, urolithin A (1, 10, or 25 μM) was added. Culture was carried out by leaving the plate to stand in an incubator at 37° C. under 5% CO2 for 8 days. The medium in each well was removed, and the cells were fixed by being left to stand in […] Mildform for 10 minutes, followed by three times of washing with pure water. Thereafter, 50 μL of TRAP staining solution (SIGMA) was added to each well, and the plate was incubated in a shaded state for 1 hour at 37° C. The TRAP staining solution in each well was discarded, and the well was washed with pure water, followed by adding 50 μL of Mayer's hematoxylin solution thereto. The plated was left to stand for 2 minutes to perform nuclear staining. The plate was washed 10 times with pure water, and then dried for one or more days. The total number of multinucleated osteoclasts having three or more nuclei present on each well was counted. The stained image was scanned using a scanner (EPSON, GT-X970, 800 pixels/inch), and the stained area was measured using image analysis software Image J.
The same operation as in Example 1 was carried out except that urolithin A was not added.
The ratio of the stained area in each sample-addition group (Example 1) to the stained area in the sample-free group (Comparative Example 1) was calculated to determine the number of osteoclasts (relative value). […] The conditions marked with “*” in Table 2 and FIG. 1 are the conditions under which the significant differences were found compared to Comparative Example 1.
The same operation as in Example 1 was carried out except that urolithin B was used instead of urolithin A, and that urolithin B was added at 25 or 50 μM.
The same operation as in Example 1 was carried out except that urolithin B was not added.
The ratio of the stained area in each sample-addition group (Example 2) to the stained area in the sample-free group (Comparative Example 2) was calculated to determine the number of osteoclasts (relative value). […] The condition marked with “*” in Table 3 and FIG. 2 is the condition under which the significant difference was found compared to Comparative Example 2.

For `O=c1oc2cc(O)ccc2c2ccc(O)cc12` [Urolithin A], the “number of osteoclasts (relative value)” value in assay [1] is 50% ± 5% (*); in assay [2] (1 μM), 88% ± 9%; in assay [2] (10 μM) it was 49% ± 6% (*); in assay [2] (25 μM) it was 26% ± 4% (*). For the same compound, the “Osteoclast differentiation (significance vs Comparative Example)” value in assay [2] (10 μM) and in assay [2] (25 μM) was “significantly inhibited” each time.

In the case of `O=c1oc2cc(O)ccc2c2ccccc12` [Urolithin B], the “number of osteoclasts (relative value)” value was 87% ± 13% in assay [2] (25 μM) and 40% ± 5% (*) in assay [2] (50 μM).
